{"source": "paper PMC2723721", "about": "(Bioorganic & medicinal chemistry, 2009)", "target": "p47phox (Homo sapiens, UniProt P14598)", "sequence (P13498 2-195)": "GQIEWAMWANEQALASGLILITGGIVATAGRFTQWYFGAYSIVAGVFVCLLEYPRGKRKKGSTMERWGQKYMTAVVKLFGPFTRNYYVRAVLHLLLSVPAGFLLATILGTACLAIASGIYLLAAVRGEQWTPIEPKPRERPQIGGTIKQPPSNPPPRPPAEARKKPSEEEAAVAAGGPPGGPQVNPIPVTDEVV", "sequence (P14598 whole entry)": "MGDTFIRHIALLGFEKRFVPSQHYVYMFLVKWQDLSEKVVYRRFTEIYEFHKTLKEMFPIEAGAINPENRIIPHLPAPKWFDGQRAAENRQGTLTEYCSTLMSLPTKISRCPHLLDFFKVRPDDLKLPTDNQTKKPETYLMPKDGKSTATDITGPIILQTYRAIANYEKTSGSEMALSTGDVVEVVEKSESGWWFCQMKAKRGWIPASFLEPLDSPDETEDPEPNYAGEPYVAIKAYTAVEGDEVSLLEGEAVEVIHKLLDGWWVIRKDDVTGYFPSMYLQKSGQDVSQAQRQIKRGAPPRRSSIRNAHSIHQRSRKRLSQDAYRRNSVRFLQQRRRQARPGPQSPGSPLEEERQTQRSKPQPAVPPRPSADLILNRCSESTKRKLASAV", "assay": "ELISA: his-p47phox binding to immobilized biotin-p22phox peptide with […] IAA", "format": "biochemical", "data": [{"smiles": "NC(=O)CI", "note": "[IAA, iodoacetamide]", "values": [{"measurement": "% drop in bound p47phox at 1 μM", "result": "> 50 % drop in bound p47phox at 1 μM"}]}]}
